Values after ≈ are worked out from the molar mass of the structure shown. Active and inactive are the calls of the source. No cut-off for these calls is given here.
Key:
[1] = target: T1, Alkaline phosphatase, tissue-nonspecific isozyme (Mus musculus) (UniProt P09242); experiment: Induction of alkaline phosphatase activity in mouse ST-2 cells after 4 days by spectrophotometric method; assay type: cell-based
T1 sequence (whole entry): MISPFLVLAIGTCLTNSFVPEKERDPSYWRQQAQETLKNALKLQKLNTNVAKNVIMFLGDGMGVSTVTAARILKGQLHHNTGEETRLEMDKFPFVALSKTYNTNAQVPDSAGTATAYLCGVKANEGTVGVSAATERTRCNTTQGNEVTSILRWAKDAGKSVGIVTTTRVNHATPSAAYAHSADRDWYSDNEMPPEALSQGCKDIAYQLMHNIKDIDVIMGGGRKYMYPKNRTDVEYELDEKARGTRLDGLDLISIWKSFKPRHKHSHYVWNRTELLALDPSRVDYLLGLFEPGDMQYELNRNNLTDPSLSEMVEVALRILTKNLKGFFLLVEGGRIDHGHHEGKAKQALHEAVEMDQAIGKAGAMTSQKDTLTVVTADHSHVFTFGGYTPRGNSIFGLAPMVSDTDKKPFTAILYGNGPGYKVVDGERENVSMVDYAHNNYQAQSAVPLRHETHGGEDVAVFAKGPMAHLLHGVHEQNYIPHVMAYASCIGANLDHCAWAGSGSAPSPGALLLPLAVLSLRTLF

[2] = Solubility of the compound in pH 6.8 JP2 solution; assay type: physicochemical
CYP2C19 = CYP2C19 (Homo sapiens, UniProt P33261); experiment: Inhibition of CYP2C19 (unknown origin) at 10 uM relative to control; assay type: ADME
Sequence of CYP2C19 (P33261 whole entry): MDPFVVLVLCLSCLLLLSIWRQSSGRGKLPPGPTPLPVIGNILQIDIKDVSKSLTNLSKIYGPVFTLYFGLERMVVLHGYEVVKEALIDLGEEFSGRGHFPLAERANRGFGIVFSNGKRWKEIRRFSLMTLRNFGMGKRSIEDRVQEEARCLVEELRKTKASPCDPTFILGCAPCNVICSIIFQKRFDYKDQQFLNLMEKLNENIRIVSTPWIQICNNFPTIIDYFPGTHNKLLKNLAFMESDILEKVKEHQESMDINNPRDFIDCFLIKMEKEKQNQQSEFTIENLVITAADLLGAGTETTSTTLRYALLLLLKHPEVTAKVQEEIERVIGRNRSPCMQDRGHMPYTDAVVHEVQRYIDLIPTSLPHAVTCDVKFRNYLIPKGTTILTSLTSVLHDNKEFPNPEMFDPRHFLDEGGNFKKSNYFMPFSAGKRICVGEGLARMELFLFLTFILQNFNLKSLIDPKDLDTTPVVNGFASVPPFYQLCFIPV

[3] = Metabolic stability in human liver microsomes assessed as parent compound remaining after 30 mins; assay type: ADME, Microsome; conditions: read-out: Stability
CYP1A2 = target: T2, CYP1A2 (Homo sapiens, UniProt P05177); experiment: Inhibition of CYP1A2 (unknown origin) at 10 uM relative to control; assay type: ADME
T2 sequence (P05177 whole entry): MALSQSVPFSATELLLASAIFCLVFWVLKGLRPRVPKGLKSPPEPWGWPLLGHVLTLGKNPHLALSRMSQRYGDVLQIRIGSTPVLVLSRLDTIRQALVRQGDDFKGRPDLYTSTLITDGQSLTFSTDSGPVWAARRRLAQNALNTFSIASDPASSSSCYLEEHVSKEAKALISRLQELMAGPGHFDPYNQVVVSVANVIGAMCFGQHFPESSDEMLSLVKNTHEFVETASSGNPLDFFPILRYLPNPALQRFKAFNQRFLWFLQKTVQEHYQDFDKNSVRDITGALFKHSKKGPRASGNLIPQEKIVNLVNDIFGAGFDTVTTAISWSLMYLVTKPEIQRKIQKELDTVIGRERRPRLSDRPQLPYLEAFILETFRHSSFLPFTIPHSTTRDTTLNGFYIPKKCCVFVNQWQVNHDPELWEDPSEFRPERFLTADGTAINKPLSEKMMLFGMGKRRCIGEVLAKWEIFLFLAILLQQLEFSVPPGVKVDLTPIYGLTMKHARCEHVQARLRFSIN

[4] = Metabolic stability in rat liver microsomes assessed as parent compound remaining after 30 mins; assay type: ADME, Microsome; conditions: read-out: Stability
CYP2D6 = CYP2D6 (Homo sapiens, UniProt P10635); experiment: Inhibition of CYP2D6 (unknown origin) at 10 uM relative to control; assay type: ADME
Sequence of CYP2D6 (P10635 whole entry): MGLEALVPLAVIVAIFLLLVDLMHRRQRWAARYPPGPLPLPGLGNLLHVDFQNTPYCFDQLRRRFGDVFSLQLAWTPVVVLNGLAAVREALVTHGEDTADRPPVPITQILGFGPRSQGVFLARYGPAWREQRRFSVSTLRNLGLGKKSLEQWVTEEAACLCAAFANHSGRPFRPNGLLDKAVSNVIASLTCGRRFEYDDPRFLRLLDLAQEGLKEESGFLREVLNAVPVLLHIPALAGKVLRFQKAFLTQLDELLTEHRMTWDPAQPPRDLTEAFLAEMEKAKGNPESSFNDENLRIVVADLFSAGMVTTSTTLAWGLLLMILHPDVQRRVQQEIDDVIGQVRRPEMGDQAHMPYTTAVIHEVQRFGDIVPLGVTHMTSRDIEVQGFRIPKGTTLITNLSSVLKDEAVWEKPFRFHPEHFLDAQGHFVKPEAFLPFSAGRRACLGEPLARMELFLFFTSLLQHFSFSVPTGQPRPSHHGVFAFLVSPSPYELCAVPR

CYP3A4 [5] = target: T3, CYP3A4 (Homo sapiens, UniProt P08684); experiment: in vitro; conditions: human liver microsomes
T3 sequence (P08684 whole entry): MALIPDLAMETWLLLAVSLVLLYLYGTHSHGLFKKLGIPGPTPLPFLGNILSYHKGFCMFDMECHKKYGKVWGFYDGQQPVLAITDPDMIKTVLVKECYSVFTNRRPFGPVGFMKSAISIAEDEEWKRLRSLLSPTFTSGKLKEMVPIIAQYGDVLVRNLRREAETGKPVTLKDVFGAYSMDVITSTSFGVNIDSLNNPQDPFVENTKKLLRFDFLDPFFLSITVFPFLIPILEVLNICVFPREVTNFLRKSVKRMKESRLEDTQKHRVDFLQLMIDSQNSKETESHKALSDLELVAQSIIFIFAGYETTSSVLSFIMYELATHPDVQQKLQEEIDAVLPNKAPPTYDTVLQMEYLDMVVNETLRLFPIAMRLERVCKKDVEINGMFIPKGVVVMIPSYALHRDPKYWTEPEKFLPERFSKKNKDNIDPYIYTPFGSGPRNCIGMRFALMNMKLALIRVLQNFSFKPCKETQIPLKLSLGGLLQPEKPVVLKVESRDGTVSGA
Description: Time dependent inhibition of CYP3A4 in human liver microsomes assessed as enzyme residual activity at 100 uM relative to control

CYP2C9 = CYP2C9 (Homo sapiens, UniProt P11712); experiment: Inhibition of CYP2C9 (unknown origin) at 10 uM relative to control; assay type: ADME
Sequence of CYP2C9 (P11712 whole entry): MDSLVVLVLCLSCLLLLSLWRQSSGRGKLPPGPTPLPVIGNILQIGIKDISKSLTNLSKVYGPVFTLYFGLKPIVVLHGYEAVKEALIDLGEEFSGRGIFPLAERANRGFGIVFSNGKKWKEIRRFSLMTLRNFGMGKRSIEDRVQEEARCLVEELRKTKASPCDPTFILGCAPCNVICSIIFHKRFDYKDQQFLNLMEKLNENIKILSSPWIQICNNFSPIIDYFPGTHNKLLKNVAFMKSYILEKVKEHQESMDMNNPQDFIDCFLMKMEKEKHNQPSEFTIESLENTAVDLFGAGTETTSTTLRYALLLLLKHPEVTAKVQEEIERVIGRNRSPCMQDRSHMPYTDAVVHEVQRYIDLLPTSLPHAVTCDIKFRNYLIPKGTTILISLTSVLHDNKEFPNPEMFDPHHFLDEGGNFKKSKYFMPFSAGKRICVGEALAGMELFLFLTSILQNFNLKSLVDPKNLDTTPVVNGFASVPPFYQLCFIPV

CYP3A4 [6] = target: T3, CYP3A4; experiment: in vitro
[7] = AUC (0 to 8 hrs) in F344 rat at 60 mg/kg, po; assay type: ADME, organism-based; set-up: time < 8 hr, dose 60 mg/kg, route oral; conditions: in vivo
[8] = Cmax in F344 rat at 60 mg/kg, po; assay type: ADME, organism-based; set-up: dose 60 mg/kg, route oral; conditions: in vivo
[9] = Cmax in F344 rat at 30 mg/kg, po; assay type: ADME, organism-based; set-up: dose 30 mg/kg, route oral; conditions: in vivo
Rattus norvegicus [10] = experiment: Bone anabolic activity in ovariectomized F344 rat assessed as increase in areal bone mineral density in proximal femur at 30 mg/kg/day, po administered for 5 weeks measured post-last dose by dual energy X-ray absorptiometry; assay type: functional, organism-based
[11] = AUC (0 to 8 hrs) in F344 rat at 30 mg/kg, po; assay type: ADME, organism-based; set-up: time < 8 hr, dose 30 mg/kg, route oral; conditions: in vivo
Rattus norvegicus [12] = experiment: Bone anabolic activity in ovariectomized F344 rat assessed as increase in areal bone mineral density in distal femur at 30 mg/kg/day, po administered for 5 weeks measured post-last dose by dual energy X-ray absorptiometry; assay type: functional, organism-based
Rattus norvegicus [13] = experiment: Bone anabolic activity in ovariectomized F344 rat assessed as increase in areal bone mineral density in total femur at 30 mg/kg/day, po administered for 5 weeks measured post-last dose by dual energy X-ray absorptiometry; assay type: functional, organism-based

C[C@H]1CC[C@H](Oc2ccnc3sc(C(N)=O)c(N)c23)CC1
EC200 [1]: 0.037 µg/mL

NC(=O)c1sc2nccc(Oc3ccccc3)c2c1N
solubility [2]: 6.6 µg/mL (≈ 23.1 µM) | EC200 [1]: 0.046 µg/mL | inhibition at 10 µM (CYP2C19): 15% | remaining at 0.5 h [3]: 11% | inhibition at 10 µM (CYP1A2): 41% | remaining at 0.5 h [4]: 36% | inhibition at 10 µM (CYP2D6): 5% | activity at 100 µM (CYP3A4 [5]): 93% | inhibition at 10 µM (CYP2C9): 13% | inhibition at 10 µM (CYP3A4 [6]): 9%

Cc1cc(Oc2ccc(CCCC(=O)N(C)C)cc2)c2c(N)c(C(N)=O)sc2n1
EC200 [1]: 0.0011 µg/mL

NC(=O)c1sc2nccc(SC3CCCCC3)c2c1N
EC200 [1]: > 1 µg/mL

COc1ccc(Oc2ccnc3sc(C(N)=O)c(N)c23)c(Cl)c1
EC200 [1]: 0.008 µg/mL

CN(C)C(=O)c1ccc(Oc2ccnc3sc(C(N)=O)c(N)c23)cc1
EC200 [1]: > 0.3 µg/mL

NC(=O)c1sc2nccc(Oc3ccc(CCO)cc3)c2c1N
solubility [2]: 39 µg/mL (≈ 118 µM) | EC200 [1]: 0.025 µg/mL | inhibition at 10 µM (CYP2C19): 8% | remaining at 0.5 h [3]: 93% | AUC(0-t) at 8 h [7]: 3580 ng·h/mL | Cmax [8]: 1540 ng/mL | inhibition at 10 µM (CYP1A2): 1% | remaining at 0.5 h [4]: 75% | inhibition at 10 µM (CYP2D6): 3% | activity at 100 µM (CYP3A4 [5]): 88% | inhibition at 10 µM (CYP2C9): 7% | inhibition at 10 µM (CYP3A4 [6]): 0%

CN(C)C(=O)CCc1ccc(Oc2ccnc3sc(C(N)=O)c(N)c23)cc1
EC200 [1]: 0.01 µg/mL

CC(C)Oc1ccnc2sc(C(N)=O)c(N)c12
EC200 [1]: 0.72 µg/mL

NC(=O)c1sc2nccc(Oc3ccccc3F)c2c1N
EC200 [1]: 0.022 µg/mL

CN(C)CCc1ccc(Oc2ccnc3sc(C(N)=O)c(N)c23)cc1
EC200 [1]: 0.058 µg/mL

Cc1cc(Oc2ccc(CCCC(=O)N(C)C)cc2Cl)c2c(N)c(C(N)=O)sc2n1
solubility [2]: 0.2 µg/mL (≈ 0.447 µM) | EC200 [1]: 0.0004 µg/mL | inhibition at 10 µM (CYP2C19): 11% | remaining at 0.5 h [3]: 25% | inhibition at 10 µM (CYP1A2): 6% | remaining at 0.5 h [4]: 11% | inhibition at 10 µM (CYP2D6): 15% | activity at 100 µM (CYP3A4 [5]): 25% | inhibition at 10 µM (CYP2C9): 30% | inhibition at 10 µM (CYP3A4 [6]): 40%

NC(=O)c1sc2nccc(OC3CCOCC3)c2c1N
solubility [2]: 180 µg/mL (≈ 614 µM) | EC200 [1]: 0.25 µg/mL | Cmax [9]: 10400 ng/mL | inhibition at 10 µM (CYP2C19): 1% | remaining at 0.5 h [3]: 92% | inhibition at 10 µM (CYP1A2): 11% | Activity (Rattus norvegicus [10]): Active | remaining at 0.5 h [4]: 85% | inhibition at 10 µM (CYP2D6): 0% | activity at 100 µM (CYP3A4 [5]): 89% | inhibition at 10 µM (CYP2C9): 1% | AUC(0-t) at 8 h [11]: 29800 ng·h/mL | Activity (Rattus norvegicus [12]): Active | inhibition at 10 µM (CYP3A4 [6]): 2% | Activity (Rattus norvegicus [13]): Active

NC(=O)c1sc2nccc(N3CCCN(c4ccccc4)CC3)c2c1N
inhibition at 10 µM (CYP2C19): 96% | inhibition at 10 µM (CYP1A2): 14% | inhibition at 10 µM (CYP2D6): 34% | activity at 100 µM (CYP3A4 [5]): 28% | inhibition at 10 µM (CYP2C9): 71% | inhibition at 10 µM (CYP3A4 [6]): 49%

COc1ccnc2sc(C(N)=O)c(N)c12
EC200 [1]: > 1 µg/mL

CN(C)C(=O)CCCc1ccc(Oc2ccnc3sc(C(N)=O)c(N)c23)cc1
EC200 [1]: 0.004 µg/mL

CN(C)c1ccnc2sc(C(N)=O)c(N)c12
EC200 [1]: 0.17 µg/mL | inhibition at 10 µM (CYP2C19): 0% | inhibition at 10 µM (CYP1A2): 61% | inhibition at 10 µM (CYP2D6): 1% | inhibition at 10 µM (CYP2C9): 0% | inhibition at 10 µM (CYP3A4 [6]): 0%

C[C@H]1CCCC[C@@H]1Oc1ccnc2sc(C(N)=O)c(N)c12 (relative stereo)
solubility [2]: 42 µg/mL (≈ 138 µM) | EC200 [1]: 0.045 µg/mL | remaining at 0.5 h [3]: 20% | remaining at 0.5 h [4]: 7%

CC(C)c1ccc(Oc2ccnc3sc(C(N)=O)c(N)c23)cc1
EC200 [1]: > 0.3 µg/mL

N#Cc1ccc(Oc2ccnc3sc(C(N)=O)c(N)c23)cc1
EC200 [1]: 0.227 µg/mL

COc1ccc(Oc2ccnc3sc(C(N)=O)c(N)c23)cc1
EC200 [1]: 0.02 µg/mL

C[C@@H]1CCC[C@H](Oc2ccnc3sc(C(N)=O)c(N)c23)C1 (relative stereo)
EC200 [1]: > 1 µg/mL

CCOc1ccnc2sc(C(N)=O)c(N)c12
EC200 [1]: 0.27 µg/mL

NC(=O)c1sc2nccc(Oc3ccc(Cl)cc3Cl)c2c1N
EC200 [1]: 0.014 µg/mL

NC(=O)c1sc2nccc(Oc3ccccc3Cl)c2c1N
EC200 [1]: 0.008 µg/mL

C[C@H]1CC[C@@H](Oc2ccnc3sc(C(N)=O)c(N)c23)CC1
EC200 [1]: > 1 µg/mL

CN(C)C(=O)COc1ccc(Oc2ccnc3sc(C(N)=O)c(N)c23)cc1
EC200 [1]: 0.023 µg/mL

CCc1ccccc1Oc1ccnc2sc(C(N)=O)c(N)c12
EC200 [1]: 0.201 µg/mL

CN1CCC(Oc2ccnc3sc(C(N)=O)c(N)c23)CC1
EC200 [1]: > 1 µg/mL

NC(=O)c1sc2nccc(OC3CCCCC3)c2c1N
solubility [2]: 28 µg/mL (≈ 96.1 µM) | EC200 [1]: 0.14 µg/mL | remaining at 0.5 h [3]: 1% | remaining at 0.5 h [4]: 2%

Cc1cc(Oc2ccc(CCCC(=O)N(C)C)cc2F)c2c(N)c(C(N)=O)sc2n1
solubility [2]: 0.3 µg/mL (≈ 0.697 µM) | EC200 [1]: 0.0005 µg/mL | inhibition at 10 µM (CYP2C19): 10% | remaining at 0.5 h [3]: 60% | AUC(0-t) at 8 h [7]: 591 ng·h/mL | Cmax [8]: 96 ng/mL | inhibition at 10 µM (CYP1A2): 10% | remaining at 0.5 h [4]: 12% | inhibition at 10 µM (CYP2D6): 10% | activity at 100 µM (CYP3A4 [5]): 47% | inhibition at 10 µM (CYP2C9): 17% | inhibition at 10 µM (CYP3A4 [6]): 20%

NC(=O)c1sc2nccc(Oc3cccc(Cl)c3)c2c1N
EC200 [1]: 0.149 µg/mL

NC(=O)c1sc2nccc(Oc3ccc(Cl)cc3)c2c1N
EC200 [1]: 0.021 µg/mL

COC(=O)c1ccc(Oc2ccnc3sc(C(N)=O)c(N)c23)cc1
EC200 [1]: 0.09 µg/mL

C[C@H]1COCC[C@@H]1Oc1ccnc2sc(C(N)=O)c(N)c12
EC200 [1]: 0.27 µg/mL

CC[C@H]1CC[C@H](Oc2ccnc3sc(C(N)=O)c(N)c23)CC1
EC200 [1]: > 0.3 µg/mL

COc1ccccc1Oc1ccnc2sc(C(N)=O)c(N)c12
EC200 [1]: 0.114 µg/mL

CCc1ccc(Oc2ccnc3sc(C(N)=O)c(N)c23)cc1
EC200 [1]: 0.036 µg/mL

Reference: ChEMBL document CHEMBL4387729, “Synthesis and structure-activity relationship of 4-alkoxy-thieno[2,3-b]pyridine derivatives as potent alkaline phosphatase enhancers for osteoporosis treatment” (Bioorg Med Chem Lett, 2019)
